B1: (cyclo 29-32) [Ac-Pro3,D-Phe11, Glu29, D-Glu31, Lys32]-hUcn(3-40) (peptide)
peptide: Ac-PSLSIDLT[dF]HLLRTLLELARTQSQREEA[dE]KNRIIFDSV-NH2
modifications: lactam 27-30
SMILES: CC[C@H](C)[C@H](NC(=O)[C@H](CO)NC(=O)[C@H](CC(C)C)NC(=O)[C@H](CO)NC(=O)[C@@H]1CCCN1C(C)=O)C(=O)N[C@@H](CC(=O)O)C(=O)N[C@@H](CC(C)C)C(=O)N[C@H](C(=O)N[C@H](Cc1ccccc1)C(=O)N[C@@H](Cc1c[nH]cn1)C(=O)N[C@@H](CC(C)C)C(=O)N[C@@H](CC(C)C)C(=O)N[C@@H](CCCNC(=N)N)C(=O)N[C@H](C(=O)N[C@@H](CC(C)C)C(=O)N[C@@H](CC(C)C)C(=O)N[C@@H](CCC(=O)O)C(=O)N[C@@H](CC(C)C)C(=O)N[C@@H](C)C(=O)N[C@@H](CCCNC(=N)N)C(=O)N[C@H](C(=O)N[C@@H](CCC(N)=O)C(=O)N[C@@H](CO)C(=O)N[C@@H](CCC(N)=O)C(=O)N[C@@H](CCCNC(=N)N)C(=O)N[C@@H](CCC(=O)O)C(=O)N[C@H]1CCC(=O)NCCCC[C@@H](C(=O)N[C@@H](CC(N)=O)C(=O)N[C@@H](CCCNC(=N)N)C(=O)N[C@H](C(=O)N[C@H](C(=O)N[C@@H](Cc2ccccc2)C(=O)N[C@@H](CC(=O)O)C(=O)N[C@@H](CO)C(=O)N[C@H](C(N)=O)C(C)C)[C@@H](C)CC)[C@@H](C)CC)NC(=O)[C@@H](CCC(=O)O)NC(=O)[C@H](C)NC1=O)[C@@H](C)O)[C@@H](C)O)[C@@H](C)O

Bridges are numbered along the chain shown (N, C = ends). Where no end group is shown, it is not given here. [ ]: non-standard residue; d: D form. Orn = NCCC[C@H](N)C(=O)O

One assay deals with CRF receptors on anterior pituitary cells in culture. In words: cell-based or functional assay.
Conditions: not given
With B1, the ACTH secretion, anterior pituitary cell cultures, potency relative to r/hCRF stood at 6.14 times r/hCRF.
On the same count and under the same terms, in the case of [dY]DNPSLSIDLTFHLLRTLLELARTQSQRERAEQNRIIFDSV-NH2 [[D-Tyr0]hUcn(1-40)] it was 1.23 times r/hCRF.

In a further assay the test system is mammalian mean arterial blood pressure. The assay can be described thus: in vivo test measuring elevation of mean arterial blood pressure as a result of iv injection. The conditions noted are these: result in words; indicative of a Ucn antagonist. An excerpt: The peptide, Ucn(11-40), having the amino acid sequence (see SEQ ID NO: 8): […] is synthesized in the manner described in Example I. To evaluate the biological activity of a candidate peptide as a Ucn antagonist (which will be indicative of its effective binding to CRF receptors), the previously mentioned assay from Endocrinology, 91, supra, is run in the presence of a challenge dose of ovine CRF. […] An in vivo test measuring elevation of mean arterial blood pressure as a result of iv injection is also simply and straightforwardly performed.
In the case of “H-[dY]HLLRTLLELARTQSQREEA[dE]KNRIIFDSV-NH2”, the “vasoconstrictive activity causing elevation of mean arterial blood pressure” value is “significant mammalian vasoconstrictive activity”.
Still for that read-out and setting: in the case of H-[dF]HLLRTLLELARTQSQREKAEENRIIFDSV-NH2 it was “significant mammalian vasoconstrictive activity”; in that of “H-[dF]HLLRTLLELARTQSQREEA[dR][Orn]NRIIFDSV-NH2”, “significant mammalian vasoconstrictive activity”.
The same measure, in the same setting: in the case of “H-Phe-His-Leu-Leu-Arg-Thr-Leu-Leu-Glu-Leu-Ala-Arg-Thr-Gln-Ser-Gln-Arg-Glu-Arg-Ala-Glu-Gln-Asn-Arg-Ile-Ile-Phe-Asp-Ser-Val-NH2 (H-FHLLRTLLELARTQSQRERAEQNRIIFDSV-NH2) [Ucn(11-40)]” it was “significant mammalian vasoconstrictive activity”.
The same measure, in the same setting: in the case of “H-[dF]HLLRTLLELARTQSQREKA[dE]ENRIIFDSV-NH2” it was “significant mammalian vasoconstrictive activity”; in that of “H-[dY]HLLRTLLELARTQSQRERAEQNRIIFDSV-NH2 [[D-Tyr^11]-Ucn(11-40)]”, “significant mammalian vasoconstrictive activity”.

Values taken from US20030032587A1, “Urocortin peptides” (The Salk Institute for Biological Studies, priority 1995, published 2003).
